Experimental data taken from the supplement of paper PMC10307832.

Columns and labels:
Assay in all cases: relative viability (nuclei count vs DMSO), 5 days (fraction); higher = more cells survive
Carboplatin + Tozasertib = compound: C1CC(C1)(C(=O)O)C(=O)O.[NH2-].[NH2-].[Pt+2] [Carboplatin] + Cc1cc(Nc2cc(N3CCN(C)CC3)nc(Sc3ccc(NC(=O)C4CC4)cc3)n2)n[nH]1 [Tozasertib] (partner 0.1 µM)
Method in brief: (§1)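 Nuclei were stained with Hoechst during a one-step fixation (final 0.05% Triton X-100, 1% formaldehyde, 1 ug/ml Hoechst) carried out 5 days after dosing, then counted on 4× images. The cells, lung cancer lines in 1536-well plates, had been dosed by pin tool the day after seeding with one drug alone or a fixed anchor-drug dose plus five library-drug doses (not always all listed) in √10 steps. Relative viability is the nuclei count in treated wells divided by that in vehicle wells, and each value is the median of duplicate plates.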

GSK126 + Luminespib = compound: CC[C@H](C)N1C=C(C2=C(C=C(C=C21)C3=CN=C(C=C3)N4CCNCC4)C(=O)NCC5=C(C=C(NC5=O)C)C)C [GSK126] + CCNC(=O)c1noc(-c2cc(C(C)C)c(O)cc2O)c1-c1ccc(CN2CCOCC2)cc1 [Luminespib] (partner 0.01 µM)
Method in brief: as §1

GSK126 + Tozasertib = compound: CC[C@H](C)N1C=C(C2=C(C=C(C=C21)C3=CN=C(C=C3)N4CCNCC4)C(=O)NCC5=C(C=C(NC5=O)C)C)C [GSK126] + Cc1cc(Nc2cc(N3CCN(C)CC3)nc(Sc3ccc(NC(=O)C4CC4)cc3)n2)n[nH]1 [Tozasertib] (partner 0.1 µM)
Method in brief: as §1

MLN4924 + AZD7762 = compound: NS(=O)(=O)OC[C@@H]1C[C@@H](n2ccc3c(N[C@H]4CCc5ccccc54)ncnc32)C[C@@H]1O [MLN4924] + NC(=O)Nc1cc(-c2cccc(F)c2)sc1C(=O)N[C@H]1CCCNC1 [AZD7762] (partner 0.2 µM)
Method in brief: as §1

Cell Line	relative viability (Carboplatin + Tozasertib; first compound 0.08 µM)	relative viability (Carboplatin + Tozasertib; first compound 0.253 µM)	relative viability (Carboplatin + Tozasertib; first compound 0.8 µM)	relative viability (Carboplatin + Tozasertib; first compound 2.53 µM)	relative viability (Carboplatin + Tozasertib; first compound 8 µM)	relative viability (GSK126 + Luminespib; first compound 0.08 µM)	relative viability (GSK126 + Luminespib; first compound 0.253 µM)	relative viability (GSK126 + Luminespib; first compound 0.8 µM)	relative viability (GSK126 + Luminespib; first compound 2.53 µM)	relative viability (GSK126 + Luminespib; first compound 8 µM)	relative viability (GSK126 + Tozasertib; first compound 0.08 µM)	relative viability (GSK126 + Tozasertib; first compound 0.253 µM)	relative viability (GSK126 + Tozasertib; first compound 0.8 µM)	relative viability (GSK126 + Tozasertib; first compound 2.53 µM)	relative viability (GSK126 + Tozasertib; first compound 8 µM)	relative viability (MLN4924 + AZD7762; first compound 0.04 µM)	relative viability (MLN4924 + AZD7762; first compound 0.1265 µM)	relative viability (MLN4924 + AZD7762; first compound 0.4 µM)	relative viability (MLN4924 + AZD7762; first compound 1.265 µM)	relative viability (MLN4924 + AZD7762; first compound 4 µM)
NCI-H358	0.113	0.101	0.107	0.108	0.114	0.39	0.382	0.366	0.422	0.283	0.105	0.116	0.133	0.12	0.122	0.518	0.472	0.369	0.144	0.215
NCI-H1915	0.494	0.455	0.411	0.364	0.331	0.986	0.771	0.788	0.823	0.841	0.486	0.436	0.447	0.438	0.415	0.844	0.786	0.713	0.265	0.162
NCI-H1975	0.882	0.719	0.634	0.626	0.677	0.292	0.257	0.185	0.198	0.12	0.833	0.69	0.762	0.648	0.48	0.636	0.973	1.54	1.79	0.756
BEN	0.588	0.633	0.469	0.486	0.433	0.465	0.681	0.222	0.419	0.342	0.516	0.388	0.669		0.462	0.66	0.76	0.561	0.321	0.264
EPLC-272H	0.314	0.387	0.181	0.289	0.291	0.485	0.198	0.595	0.522	0.237	0.316	0.306	0.211	0.306	0.189	0.27	0.239	0.0814	0.133	0.106
LU99A	0.282	0.279	0.248	0.258	0.212	0.246	0.328	0.208	0.253	0.199	0.259	0.268	0.26	0.198	0.21	0.28	0.214	0.185	0.154	0.114
NCI-H2405	0.786	0.779	0.688	0.682	0.768	0.946	0.74	0.711	0.695	0.604	0.767	0.71	0.752	0.697	0.608	1.05	0.964	0.557	0.225	0.245
HOP-62	0.377	0.387	0.378	0.378	0.368	0.938	0.863	0.943	0.889	0.783	0.314	0.397	0.427	0.261	0.308	0.438	0.263	0.111	0.051	0.0648
